One block for each compound: values may come before it. The source made the active and inactive calls. The calls are words filed in the database; no cut-off is given here.
Tests used:
[1] = target: Aurora kinase B (Homo sapiens) (UniProt Q96GD4); assay: Disruption of AURKB localization in human RPE-MYC transfected with GFP-H2B assessed as minimal effective concentration that induces mitotic arrest, polyploidy, cell death and cell number reduction by MIPS assay; assay type: cell-based
[2] = target: Aurora kinase B (Homo sapiens) (UniProt Q96GD4); assay: Disruption of AURKB localization in human RPE-MYC cells transfected with BCL2 assessed as loss of localization of PLK1 at the spindle-midzone by immunofluorescence staining based analysis; assay type: cell-based
[3] = Dose normalized AUC (0 to 6 hrs) in BALB/c mouse at 50 mg/kg, po compound formulated in PEG300 and administered as single dose by LC-MS/MS analysis; assay type: ADME, organism-based; settings: in vivo
[4] = target: Aurora kinase B (Homo sapiens) (UniProt Q96GD4); assay: Inhibition of Aurora kinase B in human RPE-MYC cells transfected with BCL2 assessed as inhibition of histone H3 phosphorylation at Ser10 residue at MEC for polyploidy measured after 6 hrs by immunofluorescence staining based analysis; assay type: cell-based
[5] = target: Aurora kinase B (Homo sapiens) (UniProt Q96GD4); assay: Disruption of AURKB localization in human RPE-MYC cells transfected with BCL2 assessed as mislocalization of AURKB at the spindle zone in anaphase cells by immunofluorescence staining based analysis; assay type: cell-based
[6] = target: Aurora kinase B (Homo sapiens) (UniProt Q96GD4); assay: Disruption of AURKB localization in human RPE-MYC cells transfected with BCL2 assessed as loss of localization of MKLP1 at the spindle-midzone by immunofluorescence staining based analysis; assay type: cell-based
[7] = target: Aurora kinase B (Homo sapiens) (UniProt Q96GD4); assay: Disruption of AURKB localization in human RPE-MYC cells transfected with BCL2 assessed as loss of localization of microtubules at the spindle-midzone by immunofluorescence staining based analysis; assay type: cell-based
[8] = Cmax in BALB/c mouse at 50 mg/kg, po compound formulated in PEG300 and administered as single dose by LC-MS/MS analysis; assay type: ADME, organism-based; parameters: dose 50 mg/kg, route po; settings: in vivo
[9] = target: Aurora kinase B (Homo sapiens) (UniProt Q96GD4); assay: Inhibition of Aurora kinase B in human RPE-MYC cells transfected with BCL2 assessed as inhibition of histone H3 phosphorylation at Ser10 residue at highest concentration measured after 6 hrs by immunofluorescence staining based analysis; assay type: cell-based
[10] = target: Aurora kinase B (Homo sapiens) (UniProt Q96GD4); assay: Inhibition of Aurora kinase B in human RPE-MYC cells transfected with BCL2 assessed as inhibition of histone H3 phosphorylation at Ser10 residue at 200 nM measured after 6 hrs by immunofluorescence staining based analysis; assay type: cell-based
[11] = target: T1, Aurora kinase A (Homo sapiens) (UniProt O14965); assay: Inhibition of Aurora kinase A in human RPE-MYC cells transfected with BCL2 assessed as inhibition of protein autophosphorylation at Thr288 residue by immunofluorescence staining based analysis; assay type: cell-based
T1 sequence (whole entry): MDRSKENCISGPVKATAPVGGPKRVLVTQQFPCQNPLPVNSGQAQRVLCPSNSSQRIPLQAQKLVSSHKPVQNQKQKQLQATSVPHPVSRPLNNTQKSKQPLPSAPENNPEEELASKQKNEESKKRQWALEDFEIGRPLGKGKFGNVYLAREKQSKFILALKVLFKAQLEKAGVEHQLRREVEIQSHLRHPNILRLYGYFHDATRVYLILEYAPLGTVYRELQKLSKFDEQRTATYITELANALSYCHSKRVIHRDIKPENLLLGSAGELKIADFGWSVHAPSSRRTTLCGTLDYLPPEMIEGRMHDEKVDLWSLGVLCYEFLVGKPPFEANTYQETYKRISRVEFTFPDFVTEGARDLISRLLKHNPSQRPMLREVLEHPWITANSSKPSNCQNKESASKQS

[12] = target: Aurora kinase B (Homo sapiens) (UniProt Q96GD4); assay: Inhibition of Aurora kinase B in human RPE-MYC cells transfected with BCL2 assessed as inhibition of histone H3 phosphorylation at Ser10 residue by immunofluorescence staining based analysis; assay type: cell-based

Aurora kinase B (Homo sapiens), sequence (Q96GD4 whole entry): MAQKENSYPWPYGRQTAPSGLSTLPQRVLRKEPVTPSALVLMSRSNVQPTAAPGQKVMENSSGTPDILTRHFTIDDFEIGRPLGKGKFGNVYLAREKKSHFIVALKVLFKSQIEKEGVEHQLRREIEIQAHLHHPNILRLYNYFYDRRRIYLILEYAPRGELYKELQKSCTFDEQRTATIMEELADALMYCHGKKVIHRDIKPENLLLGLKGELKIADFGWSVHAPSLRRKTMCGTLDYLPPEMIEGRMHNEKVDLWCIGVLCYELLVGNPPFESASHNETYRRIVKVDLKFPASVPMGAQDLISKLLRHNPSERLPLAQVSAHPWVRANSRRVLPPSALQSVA

Structure (SMILES): COc1ccc(Oc2ncccc2-c2ccnc(N)n2)cc1
MEC [1]: > 20 µM

Structure (SMILES): COC(=O)c1ccc(Oc2ncccc2-c2ccnc(N)n2)cc1
MEC [1]: > 20 µM

Structure (SMILES): COc1cccc(Oc2ncccc2-c2ccnc(N)n2)c1
MEC [1]: 1.5 µM

Structure (SMILES): Nc1ccc(Oc2ncccc2-c2ccnc(N)n2)cc1
MEC [1]: 5 µM

Structure (SMILES): CNC(=O)c1cc(OC)cc(Oc2ncccc2-c2ccnc(C)c2)c1
MEC [1]: 0.12 µM

Structure (SMILES): CNC(=O)c1cc(OC)cc(Oc2ncccc2-c2ccncc2)c1
MEC [1]: 0.47 µM

Structure (SMILES): Nc1nccc(-c2cccnc2Oc2ccccc2)n1
MEC [1]: > 20 µM

Activity [2]: Active
AUC/dose [3]: 0.72 µM·h/mg/kg
inhibition [4]: inactive
Activity [5]: Active
Activity [6]: Active
Activity [7]: Active
Cmax [8]: 14.4 µM
Structure (SMILES): CNC(=O)c1cc(Oc2ncccc2-c2ccnc(C)c2)cc(OC(F)(F)F)c1
MEC [1]: 0.12 µM

Structure (SMILES): COc1cc(Oc2ncccc2-c2ccncc2)cc(-c2nc(C)no2)c1
MEC [1]: 0.42 µM

Structure (SMILES): CNC(=O)c1cc(Oc2ncccc2-c2ccncc2)cc(OC(F)(F)F)c1
MEC [1]: 0.16 µM

Activity [2]: Active
inhibition [4]: Active
inhibition [9]: < 68%
Activity [5]: Active
Activity [6]: Active
Activity [7]: Active
Structure (SMILES): COc1cc(NC(C)=O)cc(Oc2ncccc2-c2ccnc(OC)c2)c1
MEC [1]: 0.03 µM

inhibition [10]: 100%
Structure (SMILES): CCN(CCCOc1ccc2c(Nc3cc(CC(=O)Nc4cccc(F)c4)[nH]n3)ncnc2c1)CCOP(=O)(O)O

inhibition [11]: inactive
inhibition [12]: inactive
Structure (SMILES): COc1cc(OC)cc(Oc2ncccc2-c2ccnc(C)c2)c1
MEC [1]: 0.08 µM

Structure (SMILES): COc1cc(OC)cc(Oc2ncccc2-c2ccnc(N)n2)c1
MEC [1]: 0.37 µM

Structure (SMILES): COc1cc(OC)cc(Oc2ncccc2-c2ccccc2)c1
MEC [1]: 2.08 µM

Structure (SMILES): COC(=O)c1cc(OC)cc(Oc2ncccc2-c2ccncc2)c1
MEC [1]: 0.02 µM
